Like-named read-outs stand apart in the source and are kept apart here.
How the values were obtained:
Format in all cases: cell-based
[1] = molecular target: proteins of U3A human fibrosarcoma cells (4462 proteins detected) (Homo sapiens, UniProt A0FGR8); details: protein ESYT2; U3A, 10 μM, 2 h
[2] = molecular target: proteins of U3A human fibrosarcoma cells (4462 proteins detected) (Homo sapiens, UniProt O15400); details: protein STX7; U3A cells
[3] = molecular target: proteins of U3A human fibrosarcoma cells (4462 proteins detected) (Homo sapiens, UniProt O75396); details: protein SEC22B; U3A cells
[4] = molecular target: proteins of U3A human fibrosarcoma cells (4462 proteins detected) (Homo sapiens, UniProt P11717); details: protein IGF2R; soluble abundance after heat, U3A cells
[5] = molecular target: proteins of U3A human fibrosarcoma cells (4462 proteins detected) (Homo sapiens, UniProt P14866); details: protein HNRNPL; soluble abundance after heat, U3A cells
[6] = molecular target: proteins of U3A human fibrosarcoma cells (4462 proteins detected) (Homo sapiens, UniProt P15927); details: protein RPA2; U3A cells
[7] = molecular target: proteins of U3A human fibrosarcoma cells (4462 proteins detected) (Homo sapiens, UniProt P22413); details: protein ENPP1; U3A cells
[8] = molecular target: proteins of U3A human fibrosarcoma cells (4462 proteins detected) (Homo sapiens, UniProt P24666); details: protein ACP1, U3A cells
[9] = molecular target: proteins of U3A human fibrosarcoma cells (4462 proteins detected) (Homo sapiens, UniProt P35244); details: protein RPA3; soluble abundance after heat, U3A cells
[10] = molecular target: proteins of U3A human fibrosarcoma cells (4462 proteins detected) (Homo sapiens, UniProt P51946); details: protein CCNH; U3A cells
[11] = molecular target: proteins of U3A human fibrosarcoma cells (4462 proteins detected) (Homo sapiens, UniProt P62847); details: protein RPS24, U3A cells
[12] = molecular target: proteins of U3A human fibrosarcoma cells (4462 proteins detected) (Homo sapiens, UniProt Q13627); details: protein DYRK1A, U3A cells
[13] = molecular target: proteins of U3A human fibrosarcoma cells (4462 proteins detected) (Homo sapiens, UniProt Q14839); details: protein CHD4; soluble abundance after heat, U3A cells
[14] = molecular target: proteins of U3A human fibrosarcoma cells (4462 proteins detected) (Homo sapiens, UniProt Q16401); details: protein PSMD5; soluble abundance after heat, U3A cells
[15] = molecular target: proteins of U3A human fibrosarcoma cells (4462 proteins detected) (Homo sapiens, UniProt Q5SZL2); details: protein CEP85L; U3A, 10 μM, 2 h
[16] = molecular target: proteins of U3A human fibrosarcoma cells (4462 proteins detected) (Homo sapiens, UniProt Q8NFF5); details: protein FLAD1; U3A cells
[17] = molecular target: proteins of U3A human fibrosarcoma cells (4462 proteins detected) (Homo sapiens, UniProt Q969Z0); details: protein TBRG4; U3A cells
[18] = molecular target: proteins of U3A human fibrosarcoma cells (4462 proteins detected) (Homo sapiens, UniProt Q99832); details: protein CCT7; U3A cells
[19] = molecular target: proteins of U3A human fibrosarcoma cells (4462 proteins detected) (Homo sapiens, UniProt Q9BW91); details: protein NUDT9, U3A cells
[20] = molecular target: proteins of U3A human fibrosarcoma cells (4462 proteins detected) (Homo sapiens, UniProt Q9HCN4); details: protein GPN1; soluble abundance after heat, U3A cells
[21] = molecular target: proteins of U3A human fibrosarcoma cells (4462 proteins detected) (Homo sapiens, UniProt Q9NQW6); details: protein ANLN; soluble abundance after heat, U3A cells
[22] = molecular target: proteins of U3A human fibrosarcoma cells (4462 proteins detected) (Homo sapiens, UniProt Q9NWV8); details: protein BABAM1; soluble abundance after heat, U3A cells
[23] = molecular target: proteins of U3A human fibrosarcoma cells (4462 proteins detected) (Homo sapiens, UniProt Q9NXW2); details: protein DNAJB12; soluble abundance after heat, U3A cells
[24] = molecular target: proteins of U3A human fibrosarcoma cells (4462 proteins detected) (Homo sapiens, UniProt Q9UJ41); details: protein RABGEF1; U3A cells
[25] = molecular target: proteins of U3A human fibrosarcoma cells (4462 proteins detected) (Homo sapiens, UniProt Q9Y399); details: protein MRPS2; U3A, 10 μM, 2 h
[26] = molecular target: proteins of U3A human fibrosarcoma cells (4462 proteins detected) (Homo sapiens, UniProt Q9Y3D3); details: protein MRPS16; U3A, 10 μM, 2 h
[27] = system: proteins of U3A human fibrosarcoma cells (4462 proteins detected)

Chain of proteins of U3A human fibrosarcoma cells (4462 proteins detected) (Homo sapiens, UniProt O75396) (O75396 whole entry): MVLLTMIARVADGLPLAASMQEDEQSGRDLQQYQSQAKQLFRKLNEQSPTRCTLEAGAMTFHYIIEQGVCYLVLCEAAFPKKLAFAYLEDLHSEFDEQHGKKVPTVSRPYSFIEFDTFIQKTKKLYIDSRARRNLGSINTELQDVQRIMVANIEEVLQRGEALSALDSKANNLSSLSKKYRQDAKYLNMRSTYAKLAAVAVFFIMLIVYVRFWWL
Chain of proteins of U3A human fibrosarcoma cells (4462 proteins detected) (Homo sapiens, UniProt O15400) (O15400 whole entry): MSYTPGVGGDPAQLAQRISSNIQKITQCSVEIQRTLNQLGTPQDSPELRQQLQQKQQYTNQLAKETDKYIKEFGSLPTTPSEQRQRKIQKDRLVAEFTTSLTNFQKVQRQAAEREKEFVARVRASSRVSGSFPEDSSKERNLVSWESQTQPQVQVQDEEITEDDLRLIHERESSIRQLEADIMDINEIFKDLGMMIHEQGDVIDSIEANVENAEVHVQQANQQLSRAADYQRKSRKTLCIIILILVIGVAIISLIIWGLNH
Chain of proteins of U3A human fibrosarcoma cells (4462 proteins detected) (Homo sapiens, UniProt Q14839) (Q14839 whole entry): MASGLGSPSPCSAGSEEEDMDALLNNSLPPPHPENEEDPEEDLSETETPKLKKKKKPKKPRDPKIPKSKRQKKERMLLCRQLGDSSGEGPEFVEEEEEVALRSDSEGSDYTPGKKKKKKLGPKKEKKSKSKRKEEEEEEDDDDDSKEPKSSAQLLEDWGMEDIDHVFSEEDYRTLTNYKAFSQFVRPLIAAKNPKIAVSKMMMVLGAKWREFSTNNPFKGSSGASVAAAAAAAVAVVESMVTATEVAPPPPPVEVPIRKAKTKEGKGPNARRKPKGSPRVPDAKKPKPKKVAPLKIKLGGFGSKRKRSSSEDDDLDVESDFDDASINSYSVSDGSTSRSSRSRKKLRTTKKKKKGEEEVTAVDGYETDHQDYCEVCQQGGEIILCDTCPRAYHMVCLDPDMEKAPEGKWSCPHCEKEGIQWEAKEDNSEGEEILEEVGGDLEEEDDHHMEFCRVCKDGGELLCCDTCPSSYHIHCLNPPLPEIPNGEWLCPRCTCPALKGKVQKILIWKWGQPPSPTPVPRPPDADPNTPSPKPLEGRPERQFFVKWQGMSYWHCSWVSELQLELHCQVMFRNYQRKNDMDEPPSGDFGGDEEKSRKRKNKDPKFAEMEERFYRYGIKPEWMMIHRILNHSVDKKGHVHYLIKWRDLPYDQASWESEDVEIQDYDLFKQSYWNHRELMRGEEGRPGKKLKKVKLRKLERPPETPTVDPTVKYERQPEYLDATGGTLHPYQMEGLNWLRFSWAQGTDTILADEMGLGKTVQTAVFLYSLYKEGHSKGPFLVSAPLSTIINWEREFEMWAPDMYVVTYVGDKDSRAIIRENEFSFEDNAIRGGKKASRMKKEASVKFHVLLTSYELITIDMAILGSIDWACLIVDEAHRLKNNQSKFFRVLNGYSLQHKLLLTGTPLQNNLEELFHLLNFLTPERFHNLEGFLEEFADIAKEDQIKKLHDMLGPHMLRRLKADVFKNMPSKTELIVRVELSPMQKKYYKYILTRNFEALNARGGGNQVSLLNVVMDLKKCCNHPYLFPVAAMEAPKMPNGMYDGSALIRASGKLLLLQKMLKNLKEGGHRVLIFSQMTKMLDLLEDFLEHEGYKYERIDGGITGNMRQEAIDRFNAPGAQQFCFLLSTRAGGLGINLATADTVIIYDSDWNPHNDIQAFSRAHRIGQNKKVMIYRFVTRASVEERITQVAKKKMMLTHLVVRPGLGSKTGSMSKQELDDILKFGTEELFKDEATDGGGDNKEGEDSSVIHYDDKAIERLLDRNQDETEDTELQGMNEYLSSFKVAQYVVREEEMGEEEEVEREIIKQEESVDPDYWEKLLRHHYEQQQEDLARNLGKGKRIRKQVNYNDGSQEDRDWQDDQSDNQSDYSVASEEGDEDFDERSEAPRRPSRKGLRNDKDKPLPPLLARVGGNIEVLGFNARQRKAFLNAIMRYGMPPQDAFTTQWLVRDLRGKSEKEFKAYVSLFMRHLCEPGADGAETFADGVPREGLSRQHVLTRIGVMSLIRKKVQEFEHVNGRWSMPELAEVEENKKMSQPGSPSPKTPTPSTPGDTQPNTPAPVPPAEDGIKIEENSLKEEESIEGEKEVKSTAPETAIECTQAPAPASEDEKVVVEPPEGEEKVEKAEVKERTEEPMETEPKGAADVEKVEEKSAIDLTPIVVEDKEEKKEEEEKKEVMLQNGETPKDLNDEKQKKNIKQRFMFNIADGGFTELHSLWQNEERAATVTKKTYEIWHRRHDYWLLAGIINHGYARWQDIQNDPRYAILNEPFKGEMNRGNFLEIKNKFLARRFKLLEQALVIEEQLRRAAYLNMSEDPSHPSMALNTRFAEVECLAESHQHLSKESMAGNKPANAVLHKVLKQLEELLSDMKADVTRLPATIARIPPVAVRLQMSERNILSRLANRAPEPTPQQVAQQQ
Chain of proteins of U3A human fibrosarcoma cells (4462 proteins detected) (Homo sapiens, UniProt Q9HCN4) (Q9HCN4 whole entry): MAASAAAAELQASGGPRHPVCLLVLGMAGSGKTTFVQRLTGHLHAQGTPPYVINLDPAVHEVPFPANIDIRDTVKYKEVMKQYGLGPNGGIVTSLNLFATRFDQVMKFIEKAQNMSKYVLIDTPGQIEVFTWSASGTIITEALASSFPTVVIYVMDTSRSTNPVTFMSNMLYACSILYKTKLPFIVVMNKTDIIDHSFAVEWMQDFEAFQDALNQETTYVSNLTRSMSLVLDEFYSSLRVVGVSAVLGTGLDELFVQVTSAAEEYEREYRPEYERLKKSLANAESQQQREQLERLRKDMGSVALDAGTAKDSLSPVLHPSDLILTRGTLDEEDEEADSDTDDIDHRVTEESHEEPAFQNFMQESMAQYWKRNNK
Chain of proteins of U3A human fibrosarcoma cells (4462 proteins detected) (Homo sapiens, UniProt Q5SZL2) (Q5SZL2 whole entry): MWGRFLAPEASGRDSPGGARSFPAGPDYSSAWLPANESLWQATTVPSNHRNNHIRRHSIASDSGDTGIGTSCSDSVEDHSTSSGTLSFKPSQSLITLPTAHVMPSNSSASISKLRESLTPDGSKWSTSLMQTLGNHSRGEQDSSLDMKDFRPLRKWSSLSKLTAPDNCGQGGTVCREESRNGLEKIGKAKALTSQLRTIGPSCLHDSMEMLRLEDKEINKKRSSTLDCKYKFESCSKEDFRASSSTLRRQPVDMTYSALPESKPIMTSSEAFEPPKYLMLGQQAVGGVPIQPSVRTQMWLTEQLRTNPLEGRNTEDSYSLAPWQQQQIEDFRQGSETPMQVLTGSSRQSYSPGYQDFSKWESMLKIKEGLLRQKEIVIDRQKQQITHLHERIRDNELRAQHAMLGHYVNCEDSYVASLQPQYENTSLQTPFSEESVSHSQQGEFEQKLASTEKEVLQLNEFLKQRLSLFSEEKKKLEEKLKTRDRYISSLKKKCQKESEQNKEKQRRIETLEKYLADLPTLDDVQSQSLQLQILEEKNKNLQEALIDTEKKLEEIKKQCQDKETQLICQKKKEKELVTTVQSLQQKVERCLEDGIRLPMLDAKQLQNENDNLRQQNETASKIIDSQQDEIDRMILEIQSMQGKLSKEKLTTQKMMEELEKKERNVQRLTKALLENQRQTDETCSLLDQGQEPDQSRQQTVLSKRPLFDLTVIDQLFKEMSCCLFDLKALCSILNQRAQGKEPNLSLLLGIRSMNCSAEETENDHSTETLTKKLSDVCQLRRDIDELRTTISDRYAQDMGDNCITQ
Chain of proteins of U3A human fibrosarcoma cells (4462 proteins detected) (Homo sapiens, UniProt P22413) (P22413 whole entry): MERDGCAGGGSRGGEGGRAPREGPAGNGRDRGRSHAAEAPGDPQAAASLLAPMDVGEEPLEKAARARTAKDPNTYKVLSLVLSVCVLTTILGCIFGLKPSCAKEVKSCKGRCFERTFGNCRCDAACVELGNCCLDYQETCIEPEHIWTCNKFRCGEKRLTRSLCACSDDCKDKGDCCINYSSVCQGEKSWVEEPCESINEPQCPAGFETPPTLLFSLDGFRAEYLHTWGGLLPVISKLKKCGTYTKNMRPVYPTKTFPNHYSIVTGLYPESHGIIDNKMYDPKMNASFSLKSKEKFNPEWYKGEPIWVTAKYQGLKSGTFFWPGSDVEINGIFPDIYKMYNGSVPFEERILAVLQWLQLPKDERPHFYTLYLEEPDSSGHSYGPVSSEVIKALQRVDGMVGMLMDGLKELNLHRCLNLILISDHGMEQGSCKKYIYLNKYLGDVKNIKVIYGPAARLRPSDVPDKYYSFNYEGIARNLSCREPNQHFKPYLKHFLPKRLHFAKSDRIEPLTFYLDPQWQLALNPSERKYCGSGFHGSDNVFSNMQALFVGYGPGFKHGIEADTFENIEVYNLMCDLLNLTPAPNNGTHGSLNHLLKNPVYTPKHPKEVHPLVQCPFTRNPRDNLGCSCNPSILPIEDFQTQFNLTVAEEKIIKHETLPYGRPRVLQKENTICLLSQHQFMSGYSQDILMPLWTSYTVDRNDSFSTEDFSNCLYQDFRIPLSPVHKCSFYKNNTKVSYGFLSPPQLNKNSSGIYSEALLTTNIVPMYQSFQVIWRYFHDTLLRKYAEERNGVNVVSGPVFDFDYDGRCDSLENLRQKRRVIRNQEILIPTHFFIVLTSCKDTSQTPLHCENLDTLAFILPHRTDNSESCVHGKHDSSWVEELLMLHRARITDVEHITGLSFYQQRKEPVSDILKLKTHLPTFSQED
Chain of proteins of U3A human fibrosarcoma cells (4462 proteins detected) (Homo sapiens, UniProt Q9NWV8) (Q9NWV8 whole entry): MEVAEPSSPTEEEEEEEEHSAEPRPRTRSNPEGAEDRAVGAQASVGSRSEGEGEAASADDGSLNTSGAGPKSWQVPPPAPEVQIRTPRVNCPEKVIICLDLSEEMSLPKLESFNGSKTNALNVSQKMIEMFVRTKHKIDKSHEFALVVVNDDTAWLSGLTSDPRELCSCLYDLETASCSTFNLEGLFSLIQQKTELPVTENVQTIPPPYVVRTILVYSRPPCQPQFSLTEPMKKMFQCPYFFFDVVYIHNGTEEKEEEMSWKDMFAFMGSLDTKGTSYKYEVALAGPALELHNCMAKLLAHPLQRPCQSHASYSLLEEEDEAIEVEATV
Chain of proteins of U3A human fibrosarcoma cells (4462 proteins detected) (Homo sapiens, UniProt P24666) (P24666 whole entry): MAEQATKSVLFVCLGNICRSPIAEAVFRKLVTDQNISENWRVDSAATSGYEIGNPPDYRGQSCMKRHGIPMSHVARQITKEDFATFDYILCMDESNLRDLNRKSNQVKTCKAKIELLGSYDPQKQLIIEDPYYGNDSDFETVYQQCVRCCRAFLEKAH

`CCc1nc(N)nc(N)c1-c1ccc(Cl)cc1` [pyrimethamine] was tested, and the “Log2 (PYR/DMSO), ESYT2” value [1] was 0.33, the “Log2 (PYR/DMSO)” value [2] was 0.18 and the “Log2 (PYR/DMSO)” value [3] was 0.21. The “Log2 (PYR/DMSO)” value [4] was 0.15, the “Log2 (PYR/DMSO)” value [5] was 0.15 and the “Log2 (PYR/DMSO)” value [6] was 0.17. The “Log2 (PYR/DMSO)” value [7] was 0.22, the “Log2 (PYR/DMSO)” value [8] was -0.04 and the “Log2 (PYR/DMSO)” value [9] was 0.13. For the same compound, the “Log2 (PYR/DMSO)” value [10] was 0.16, the “Log2 (PYR/DMSO)” value [11] was -0.04 and the “Log2 (PYR/DMSO)” value [12] was -0.05. For the same compound, the “Log2 (PYR/DMSO)” value [13] was 0.14, the “Log2 (PYR/DMSO)” value [14] was 0.14 and the “Log2 (PYR/DMSO), CEP85L” value [15] was -0.24. For the same compound, the “Log2 (PYR/DMSO)” value [16] was 0.16, the “Log2 (PYR/DMSO)” value [17] was 0.19 and the “Log2 (PYR/DMSO)” value [18] was 0.18. The “Log2 (PYR/DMSO)” value [19] was -0.04, the “Log2 (PYR/DMSO)” value [20] was 0.15 and the “Log2 (PYR/DMSO)” value [21] was 0.14. For the same compound, the “Log2 (PYR/DMSO)” value [22] was 0.15, the “Log2 (PYR/DMSO)” value [23] was 0.15 and the “Log2 (PYR/DMSO)” value [24] was 0.20. For the same compound, the “Log2 (PYR/DMSO), MRPS2” value [25] was 0.25, the “Log2 (PYR/DMSO), MRPS16” value [26] was 0.24 and the “Log2 (PYR/DMSO)” value ([27]; protein AGO2, AGO1, AGO3, AGO4, soluble abundance after heat, U3A cells) was 0.14. For the same compound, the “Log2 (PYR/DMSO), ANXA8L1; ANXA8L2; ANXA8” value ([27]; protein ANXA8L1, ANXA8L2, ANXA8, U3A, 10 μM, 2 h) was -0.40, the “Log2 (PYR/DMSO), ATP2A2; ATP2A1; ATP2A3” value ([27]; protein ATP2A2, ATP2A1, ATP2A3, U3A, 10 μM, 2 h) was 0.28 and the “Log2 (PYR/DMSO)” value ([27]; protein CUX1, U3A cells) was 0.20. For the same compound, the “Log2 (PYR/DMSO)” value ([27]; protein DHRS4, DHRS4L1, soluble abundance after heat, U3A cells) was 0.13, the “Log2 (PYR/DMSO)” value ([27]; protein EIF3C, EIF3CL, U3A cells) was 0.18 and the “Log2 (PYR/DMSO)” value ([27]; protein Em:AP000351.3, GSTT2, GSTT2B, U3A cells) was -0.05. For the same compound, the “Log2 (PYR/DMSO)” value ([27]; protein H2AFX, HIST1H2AJ, HIST1H2AH, H2AFJ, HIST2H2AC, HIST1H2AC, HIST3H2A, HIST2H2AA3, HIST1H2AD, HIST1H2AG, HIST1H2AB, HIST1H2AA, HIST2H2AB, U3A cells) was 0.19, the “Log2 (PYR/DMSO)” value ([27]; protein HIST2H3A, HIST3H3, HIST1H3A, H3F3B, H3F3A, HIST2H3PS2, H3F3C, U3A cells) was 0.22 and the “Log2 (PYR/DMSO)” value ([27]; protein HPCAL1, HPCA, soluble abundance after heat, U3A cells) was 0.15. The “Log2 (PYR/DMSO)” value ([27]; protein KHDRBS1, KHDRBS2, soluble abundance after heat, U3A cells) was 0.14, the “Log2 (PYR/DMSO), KIAA2012; SPEG” value ([27]; protein KIAA2012, SPEG, U3A, 10 μM, 2 h) was 0.26 and the “Log2 (PYR/DMSO)” value ([27]; protein MOCS2, U3A cells) was -0.04. For the same compound, the “Log2 (PYR/DMSO)” value ([27]; protein POLR2J3, POLR2J, POLR2J2, U3A cells) was -0.04, the “Log2 (PYR/DMSO)” value ([27]; protein POM121C, POM121, POMZP3, soluble abundance after heat, U3A cells) was 0.14 and the “Log2 (PYR/DMSO)” value ([27]; protein PPP1R2, PPP1R2P3, U3A cells) was -0.04. For the same compound, the “Log2 (PYR/DMSO), PRSS1; PRSS3P2; PRSS2” value ([27]; protein PRSS1, PRSS3P2, PRSS2, U3A, 10 μM, 2 h) was -0.20, the “Log2 (PYR/DMSO), SLC25A5; SLC25A4; SLC25A6; SLC25A31” value ([27]; protein SLC25A5, SLC25A4, SLC25A6, SLC25A31, U3A, 10 μM, 2 h) was 0.31 and the “Log2 (PYR/DMSO)” value ([27]; protein UBE2Q1, UBE2Q2, U3A cells) was 0.20.

From paper PMC8800111 (The Journal of Biological Chemistry, 2021)
